For series [1] the following is noted: cited from earlier work.
Series [2] relates to E. faecalis. In words: Minimum inhibitory concentration, broth microdilution (NCCLS M7-A). The format is cell-based. The following applies: Enterococcus faecalis, read-out: Minimum Inhibitory Concentration. The method, then:
(§1) The minimum inhibitory concentration of the drugs against the bacterial strains S. pyrogenes, E. faecalis, S. aureus, E. coli and P. aeruginosa were determined.
For orientation: Dilution methods test growth across graded concentrations, often in twofold steps.

Series [3] relates to P. aeruginosa. The description is as above. The format is cell-based. Conditions: Pseudomonas aeruginosa, read-out: Minimum Inhibitory Concentration. Here is the method: as §1
Series [4] deals with S. pyrogenes. Described as above. The format is cell-based. Conditions: read-out: Minimum Inhibitory Concentration. The method, then: as §1
Series [5] has as its system E. coli. The description is as above. The format is cell-based. The following applies: Escherichia coli, inoculum 5×10^5 CFU/ml. The method, then: (§2) As described above, glycinyl-ciprofloxacin was prepared as set forth in Example 2A-2B and tested for antimicrobial activity in vitro, as described in Example 2C. The minimum inhibitory concentration of the drugs against the bacterial strains S. pyrogenes, E. faecalis, S. aureus, E. coli and P. aeruginosa were determined.
(§3) Minimum inhibitory concentrations were determined by a broth microdilution technique following the National Committee for Clinical Laboratory Standards guidelines (NCCLS document M7-A, National Committee for Laboratory Standards, Villanova, Pa., 1994 Approved Standard for "Methods for dilution antimicrobial susceptibility tests for bacteria that grow aerobically") with a starting inoculum of 5×10^5 CFU/ml.

Series [6] deals with S. aureus. The series is described as above. The format is cell-based. The following applies: Staphylococcus aureus, inoculum 5×10^5 CFU/ml. Here is the method:
as §2, §3

Series [7] in a line: Remote drug loading into PEG-coated liposomes. The following applies: for % Drug Loading / Drug Conc. at Lipid Conc. of 36 mg/ml / Internal Liposome Drug Conc.: Drug:Lipid Ratio (mg/ml/mM) 2.5:50 (lysine-cipro), 5:50 (glycine-cipro). The format is physicochemical. Here is the method: The chloroform was removed using a flash evaporator under reduced pressure until dryness. To the thin lipid film on the surface of the flask was added 15 ml of a solution of 250 mM ammonium sulfate, pH 5.5 and the lipids were dispersed in the solution by vigorous shaking for approximately 30 minutes at 60° C. The multilamellar vesicles obtained were extruded 6 times through a 0.4 μm pore-size Nucleopore polycarbonate filter, 6 times through a 0.1 μm polycarbonate filter and 3 times through a 0.05 μm polycarbonate filter using a stainless steel extrusion cell under a pressure of 200-400 psig. The extrusion process was carried out at 60° C. […] The liposomes were then dialyzed overnight against 4 liters 10% sucrose to remove external ammonium sulfate at 4° C.
The mixtures were incubated at 60° C. for 30 minutes. After incubation, the mixtures were immediately cooled in an ice bath. Aliquot samples were taken and the percent of drug loading was determined by using a Sephadex G-50 column (1.0×19 cm).

For series [8], the system named is S. pyrogenes, E. faecalis, S. aureus, E. coli and P. aeruginosa. The experiment in a line: Antimicrobial activity of conjugate versus ciprofloxacin (MIC, summary in words). The following applies: compared with ciprofloxacin, MICs of Table 1. The format is cell-based. Here is the method: as §1
Where [9] appears, read: amino group (NH3) of amino acid, Lehninger.
The mark [10] stands for this setting: amino acid used to modify ciprofloxacin.

Converted amounts (≈) assume the structure as drawn. Where two headings read alike, the source gives them in different places.

For orientation: pKa means the negative logarithm of the acid dissociation constant.

For `NCCCC[C@H](N)C(=O)O` [lysine], the pKa in series [1] (setting [9]) was 8.95.

Consider `N=C(N)NCCC[C@H](N)C(=O)O` [arginine], for which, in series [1] (setting [9]), the pKa is given as 9.04.

For `C[C@H](N)C(=O)O` [alanine], the pKa in series [1] (setting [9]) is 9.7.

On to `NCC(=O)N1CCN(c2cc3c(cc2F)c(=O)c(C(=O)O)cn3C2CC2)CC1` [glycinyl-ciprofloxacin], for which the MIC is 32 µg/mL (≈ 82.4 µM) in series [2] (E. faecalis, inoculum 5×10^5 CFU/ml); above 512 µg/mL in series [3] (P. aeruginosa, inoculum 5×10^5 CFU/ml); 4 µg/mL (≈ 10.3 µM) in series [4] (S. pyrogenes, inoculum 5×10^5 CFU/ml); 8 µg/mL (≈ 20.6 µM) in series [5]; 32 µg/mL (≈ 82.4 µM) in series [6]. The “% Drug Loading” value in series [7] is 75%. Moreover, in series [7], the “Drug Conc. at Lipid Conc. of 36 mg/ml” value was 5. In addition, the “Internal Liposome Drug Conc.” value in series [7] stood at 37.5 mg/mL. The “potency relative to ciprofloxacin” value in series [8] is reported as “some loss of potency”.

For `O=C(O)c1cn(C2CC2)c2cc(N3CCNCC3)c(F)cc2c1=O` [ciprofloxacin, 1-cyclopropyl-6-fluoro-1,4-dihydro-4-oxo-7-(1-piperazinyl)-3-quinoline carboxylic acid], the MIC is 1 µg/mL (≈ 3.02 µM) in series [2], below 0.5 µg/mL in series [3], below 0.5 µg/mL in series [4] and 1 µg/mL (≈ 3.02 µM) in series [6]. Also, the “percent of drug loading” value in series [7] (lipid/drug ratio 2) was 49%; in series [7] (lipid/drug ratio 4), 75%; in series [7] (lipid/drug ratio 8) it was 90%; in series [7] (lipid/drug ratio 16), 91%. Further, the ciprofloxacin loading in series [7] (lipid/drug ratio 8, as stated in leakage test) is 75%.

As for α-aminocapric acid, the pKa in series [1] (setting [10]) was 9.6.

In the case of `NCCCC[C@H](N)C(=O)N1CCN(c2cc3c(cc2F)c(=O)c(C(=O)O)cn3C2CC2)CC1` [lysinyl-ciprofloxacin], in series [7], the “% Drug Loading” value worked out at 73%, the “Drug Conc. at Lipid Conc. of 36 mg/ml” value is reported as 1.825 and the “Internal Liposome Drug Conc.” value is 13.1 mg/mL.

In the case of ε-aminocapric acid, the pKa in series [1] (setting [10]) is 10.5.

For `NCC(=O)O` [glycine], the pKa in series [1] (setting [9]) is 9.6.
